According to paper PMC9318686, “Identification of NAPRT Inhibitors with Anti-Cancer Properties by In Silico Drug Discovery” (Pharmaceuticals, 2022):

biological target: T1, recombinant human NAPRT (nicotinic acid phosphoribosyltransferase) (Homo sapiens, UniProt Q6XQN6); experiment: HPLC of NAMN formation, Michaelis-Menten fit; type: biochemical
T1 construct: dimer
T1 sequence (Q6XQN6 1-538): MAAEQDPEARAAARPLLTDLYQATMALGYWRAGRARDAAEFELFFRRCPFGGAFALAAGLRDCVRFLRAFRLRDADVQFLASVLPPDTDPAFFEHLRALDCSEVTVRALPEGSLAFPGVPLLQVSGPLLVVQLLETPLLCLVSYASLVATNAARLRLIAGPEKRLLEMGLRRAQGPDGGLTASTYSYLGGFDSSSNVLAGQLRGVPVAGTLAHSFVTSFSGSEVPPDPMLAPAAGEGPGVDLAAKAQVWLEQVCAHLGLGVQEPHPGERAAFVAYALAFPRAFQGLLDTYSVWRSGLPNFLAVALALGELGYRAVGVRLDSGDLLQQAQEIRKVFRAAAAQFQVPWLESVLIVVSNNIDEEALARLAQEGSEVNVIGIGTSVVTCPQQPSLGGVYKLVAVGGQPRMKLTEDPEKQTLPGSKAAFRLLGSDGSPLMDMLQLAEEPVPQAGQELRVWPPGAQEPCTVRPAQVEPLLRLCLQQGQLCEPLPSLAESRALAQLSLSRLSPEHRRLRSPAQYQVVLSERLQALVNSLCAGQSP
Description: HPLC of NAMN formation, Michaelis-Menten fit on recombinant human NAPRT (nicotinic acid phosphoribosyltransferase)

Row | SMILES | Ki [µM]
1 | O=C(N[C@@H](C(=O)c1ccccc1)n1cnccc1=O)c1ccccc1 [compound 1] | 2280
2 | O=C(O)c1cnccc1O [compound 8] | 308
3 | O=C(O)c1cnsn1 [compound 19] | 295
